Results published in US20230310542A1, “EPIGENETIC MODIFIERS TO TREAT RETINAL DEGENERATIONS” (priority 2022, published 2023).

Assays:
RGC = conditions: previous study; cited from earlier work
RP = conditions: previous studies, cited from earlier work; for protective effect on RP: non-selective HDAC inhibitors
rd10 mice = assay: Rod photoreceptor preservation in rd10 mice (photoreceptor rows in ONL, immunofluorescence); format: in vivo, mouse
Experimental: (§1) All inhibitors were diluted in 0.9% bacteriostatic sodium chloride (saline).
(§2) Retinas were fixed in 4% paraformaldehyde overnight at 4° C., washed in PBS, incubated in 5% sucrose/PBS for 30 min and then cryopreserved in 20% sucrose/PBS overnight at 4° C. Retinas were embedded in 2:1 mix of 20% sucrose and OCT (Sakura Finetek Torrance, CA) and stored at −80° C. Blocks with tissue samples were sectioned to 7-10 μm on a Cryostat Microtome HM550 (Thermo Fisher Scientific) and stored at −20° C. Antigen retrieval was performed by incubating the slides in 10 mM sodium citrate pH 6 for 30 min at 80° C. Double labeling immunohistochemistry was performed using fluorescent Alexa Fluor-conjugated secondary antibodies diluted 1:800 (Invitrogen, Carlsbad, California). Primary antibodies were diluted as follow: anti-H3K4me2 1:600, anti-H3K9me2 1:600, anti-RHO 1:50, anti-OPN1SW 1:400, anti-GFAP 1:1000, anti-IBA1 1:450 (AifI gene). […] The acquisition parameters were maintained constant for each set of experiments. Fluorescence intensity was assessed using ImageJ software (Bethesda, MD).

rd1 mice = conditions: previous studies; cited from earlier work
GFAP, IBA1 = assay: Immunofluorescence labeling of GFAP and IBA1 in retina sections; format: in vivo, mouse; conditions: rd10, treated PN9 till PN24; levels remained above WT
Experimental: Fluorescence intensity was assessed using ImageJ software (Bethesda, MD).

rod nuclei = conditions: WT + TCP, PN24
Experimental: as §2
The number of heterochromatin foci in rod nuclei was calculated to estimate the level of rod photoreceptor maturation in retinas of animals treated with LSD1 inhibitors (FIG. 10B).

rd10 mice retina = assay: RT-PCR retinal gene expression, rd10 mice; format: in vivo, mouse
Experimental: (§3) Whole retinas were isolated from animals by removing the sclera and most of the retinal pigmented epithelium (RPE) layer under PBS. The right eye retinas from each animal were taken for RNA extraction, cDNA preparation and RT-PCR. Immediately after isolation, tissue was flash frozen in liquid nitrogen and stored at −80° C. Left eye retinas from each animal were subjected to fixation, cryopreservation, sectioning, and immunofluorescence staining. RNA extraction and purification followed the manufacturer's protocol from RNeasy Mini Kit and RNA shredder (Qiagen). […] Primers purchased from Integrated DNA Technologies (IDT). For quantitative real-time PCR we used 2× iQ-SYBR Green PCR supermix from Bio-Rad. Samples in triplicate were run on an iQ5 Multicolor Real Time PCR Detection System (Bio-Rad). The relative expression level for each gene was calculated by the 2-ΔΔCt method and normalized to GAPDH.

rd10 = conditions: TCP PN9 till PN24
Experimental: Retinas were fixed in 4% paraformaldehyde overnight at 4° C., washed in PBS, incubated in 5% sucrose/PBS for 30 min and then cryopreserved in 20% sucrose/PBS overnight at 4° C. Retinas were embedded in 2:1 mix of 20% sucrose and OCT (Sakura Finetek Torrance, CA) and stored at −80° C. Blocks with tissue samples were sectioned to 7-10 μm on a Cryostat Microtome HM550 (Thermo Fisher Scientific) and stored at −20° C. TUNEL assay was carried out using the In situ Cell death detection kit, Fluorescein from Roche (Germany) according to manufacturer's instruction.

WT mice retina = assay: RT-PCR retinal gene expression, WT mice; format: in vivo, mouse
Experimental: as §3

WT mice = conditions: TCP PN9 till PN24
Experimental: as §1, §2

H3K4me2, H3K9me2 = assay: Anti-H3K4me2 and anti-H3K9me2 Western blot of WT retina; format: in vivo, mouse; conditions: WT mice treated PN9 till PN24
Experimental: Both retinas from one animal were flash frozen together in liquid nitrogen and stored at −80° C. Samples for SDS-PAGE were prepared by resuspended retinas in 50 μl PBS. Laemmli sample buffer was added, samples were boiled for 10 min, resolved on Criterion TGX Precast Gel AnyKD (Bio-Rad), transferred to nitrocellulose membrane, and immunoblotted with antibodies anti-H3K9me2 or anti-H3K4me2 diluted 1:5000; anti-ACTB diluted 1:10000; anti-PDE6B (1:500). Secondary goat anti-rabbit/mouse HRP (Jackson Immuno-Research Laboratory, West Grove, PA) was diluted 1:5000. An ECL western blot detection system (Thermo Fisher Scientific) was used to visualize the bound of the primary antibody.

Nc1cc(F)ccc1NC(=O)/C=C/c1cnn(C/C=C/c2ccccc2)c1 [RGFP966]
RGC death (RGC): protected against RGC death

CC(/C=C/C(=O)NO)=C\[C@@H](C)C(=O)c1ccc(N(C)C)cc1 [TSA]
protective effect on RP (RP): some protective effect

CCCC(CCC)C(=O)O [VPA]
protective effect on RP (RP): some protective effect | outcome as therapeutic agent for retinal degeneration (RP): mixed results

CCCC(=O)[O-].[Na+] [sodium butyrate]
protective effect on RP (RP): some protective effect

C/C=C1\NC(=O)[C@H]2CSSCC/C=C/[C@H](CC(=O)N[C@H](C(C)C)C(=O)N2)OC(=O)[C@H](C(C)C)NC1=O [romidepsin]
rows of photoreceptor remaining in the ONL at PN24 (rd10 mice; romidepsin 0.2 mg/kg i.p. daily PN9 till PN24, saline control 2-3 rows): 8 rows

Nc1nccc2c1ncn2[C@@H]1C=C(CO)[C@@H](O)[C@H]1O [DZNep, 3-deazaneplanocin A]
retinal degeneration / photoreceptor loss in rd1 mouse (rd1 mice): delays in retinal degeneration

N[C@@H]1C[C@H]1c1ccccc1 (relative stereo) [TCP, trans-2-Phenylcyclopropylamine]
IBA1 labeling (microglia) (GFAP, IBA1): decreased | rod nuclei with 3 foci (rod nuclei; WT saline 2%): 7% | rod nuclei with two foci (rod nuclei; WT saline 43%): 51% | rod nuclei with one focus (rod nuclei; WT saline 55%): 42% | expression of rod photoreceptor genes relative to GAPDH (rd10 mice retina; treated PN9 till PN24, assayed PN24, vs saline): increased expression of almost all rod genes | expression of cone genes Thrb or Gnat2 (rd10 mice retina; treated PN9 till PN24 vs saline): slightly up-regulated | dying cells by TUNEL staining vs control (rd10): no significant difference | expression of rod photoreceptor genes (WT mice retina; WT mice treated PN9 till PN24): no changes | expression of transcription factors of retina development and maturation (WT mice retina; WT retinas, treated PN9 till PN24): slightly increased expression | ONL thickness (WT mice): significantly increased | number of rows of rods (WT mice): did not change | rows of photoreceptors remaining in the ONL at PN24 (rd10 mice; TCP 10 mg/kg i.p. daily PN9 till PN24): 7 rows | global levels of H3K4me2 (H3K4me2, H3K9me2): did not change significantly | global levels of H3K9me2 (H3K4me2, H3K9me2): No changes
